Read-outs that look alike come from different tables or passages of the source.
Columns and labels:
hSUMO-1 18-97 = molecular target: T1, hSUMO-1 18-97 (Homo sapiens, UniProt P63165); experiment: Fluorescence anisotropy competition assay, FITC-peg-SIM tracer / SUMO; assay type: binding; conditions: competition FA, 50 mM Tris, 150 mM NaCl, 25 nM tracer, 100 nM SUMO, read after 45 min, triplicate
T1 construct: 18-97; His-TEV (N, cleaved yes); made in house
Experimental: hSUMO-1 18-97 was expressed and purified as previously described from a pet19b His-TEV-SUMO-1 (18-97) construct with cleavage of the tag using TEV protease.4 […]
Fluorescence anisotropy assays were performed in 384-well plates (Greiner Bio-one). Each experiment was run in triplicate and the fluorescence anisotropy measured using a Perkin Elmer EnVisionTM 2103 MultiLabel plate reader, with excitation at 480 nm (30 nm bandwidth), polarised dichroic mirror at 505 nm and emission at 535 nm (40 nm bandwidth, S and P polarised). All assays were performed in 20 mM Tris, 100 mM NaCl, 0.1 mM DTT, pH 7.5 unless otherwise stated and data analysed following previously published methods.
Fluorescence anisotropy data was processed as described previously.[2] Briefly. the data from both the P (perpendicular intensity) and S (parallel intensity) channels, resulting from this measurement and corrected by subtracting the corresponding control wells, were used to calculate the intensity and anisotropy for each well following Equations 1 and 2: […]
For direct titration the average anisotropy (across three experimental replicates) and the standard deviation of these values were then calculated and fit to a logistic model using OriginPro 9.0 to determine the maximum and minimum anisotropies then the fraction bound calculated (Equation 3) and used to determine Kd (equation 4)
Lb= (r‒rmin)/λ(rmax‒r)+r‒rmin Equation 3
y= {(k+ x+[ FL])‒√{k+x+[FL] 2‒4x[FL]}}/2 Equation 4 r = anisotropy, I = total intensity, P = perpendicular intensity, S = parallel intensity, G = instrument factor which was set to 1 for all experiments, Lb = fraction ligand bound, λ = […]
(§1) For competition experiments, the anisotropies were determined as for the direct titration and then plotted against inhibitor concentration and fit (equation 5) to determine the IC50 and error […]
(§2) y = rmax + (rmin-rmax)/(1+(x/xo)p) Equation 5
Where xo represents the IC50 […]
(§3) Competition binding assays:
(§4) FA competition assays were performed in 384 well plates with the concentration of variant […]
(§5) with fixed protein and tracer concentrations. FITC-labelled peptide was added to each well to […]
For control wells, the tracer peptide was replaced with an identical volume of assay buffer.
The total volume in each well was 60 μL. […]

[1] = Solubility, qualitative test
Experimental: (1 picture or pasted object on this page, not shown here)
as §1, §2
Where xo represents the IC50
Fluorescence anisotropy direct titration assays were performed with protein concentration diluted over 16-24 points using 2-fold dilutions. Followed by addition of tracer peptide was added to the wells. For control wells, the tracer peptide was replaced with an identical volume of assay buffer. Plates were read after 45 minutes.
as §3, §4, §5
The total volume in each well was 60 μL. Plates were read after 45 minutes of incubation at […]
ITC experiments were carried out using a Microcal ITC200i instrument (Malvern) at 25°C in 20 mM Tris, 150 mM NaCl, pH 7.5 buffer. […] Data was analysed using Microcal Origin 8 and fitted to a one-binding site model
Spectra were recorded on a Chirascan circular dichroism spectropolarimeter (Applied Photophysics), at 20°C, using 1 mm cells and a scan speed of 5 nm/min. […]
Peptide solubility was assessed using a qualitative test. […]

T1 sequence (P63165 18-97): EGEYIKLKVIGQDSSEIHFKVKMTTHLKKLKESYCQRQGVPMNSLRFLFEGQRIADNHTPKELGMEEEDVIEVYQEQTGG

| IC50 (hSUMO-1 18-97) [µM] | maximum solubility / concentration obtained ([1]; qualitative test) [mM] | maximum solubility / concentration obtained [1] | SMILES |
| --- | --- | --- | --- |
| 14.8 ± 0.7 | > 8 | – | CC[C@H](C)[C@H](NC(=O)[C@@H](NC(=O)[C@H](CCC(=O)O)NC(=O)[C@H](CC(=O)O)NC(=O)[C@H](CCC(=O)O)NC(=O)[C@H](CC(N)=O)NC(=O)[C@H](CC(=O)O)NC(C)=O)C(C)C)C(=O)N[C@H](C(=O)N[C@H](C(=O)N[C@@H](Cc1c[nH]c2ccccc12)C(=O)N[C@@H](CCC(=O)O)C(=O)N[C@@H](CCCCN)C(=O)N[C@@H](CCCCN)C(N)=O)C(C)C)[C@@H](C)CC [SIM2705–2717I2708D] |
| – | – | ~ 1 mM | CC[C@H](C)[C@H](NC(=O)[C@H](CCC(=O)O)NC(=O)[C@H](CC(N)=O)NC(=O)[C@H](CC(=O)O)NC(C)=O)C(=O)N[C@@H](CCC(=O)O)C(=O)N[C@H](C(=O)N[C@H](C(=O)N[C@H](C(=O)N[C@H](C(=O)N[C@@H](Cc1c[nH]c2ccccc12)C(=O)N[C@@H](CCC(=O)O)C(=O)N[C@@H](CCCCN)C(=O)N[C@@H](CCCCN)C(N)=O)C(C)C)[C@@H](C)CC)[C@@H](C)CC)C(C)C [SIM2705–2717] |

— article PMC8495968, “Towards optimizing peptide-based inhibitors of protein–protein interactions: predictive saturation variation scanning (PreSaVS)” (RSC Chemical Biology, 2021)
